Data published in US10745400B2, “Inhibition of BMP signaling, compounds, compositions and uses thereof” (Vanderbilt University, priority 2018, dated 2020).
Read-outs that look alike come from different tables or passages of the source.

Experiments:
[1] = target: ALK1/ACVRL1 (Homo sapiens, UniProt P37023); experiment: Kinase assay (33P-ATP filter-binding), ALK1; type: biochemical; details: read-out: Kinase Selectivity ALK1/ACVRL1
Summary of the method: (§1)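 Substrate in pH 7.5 HEPES buffer (10 mM MgCl2, 1 mM EGTA, 2 mM DTT, 0.1 mM Na3VO4, 1% DMSO); compound preincubated with kinase 20 min at room temperature. Reaction started with 33P-ATP, run 2 h at room temperature; activity measured by P81 filter binding.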

[2] = target: T1, ALK2 (R206H) (Homo sapiens, UniProt Q04771, R206H); experiment: Kinase assay (33P-ATP filter-binding), ALK2 R206H; type: biochemical; details: R206H mutant, 20 mM; read-out: Kinase Selectivity ALK2 (R206H, 20 mM)
T1 sequence (Q04771 21-509 R206H): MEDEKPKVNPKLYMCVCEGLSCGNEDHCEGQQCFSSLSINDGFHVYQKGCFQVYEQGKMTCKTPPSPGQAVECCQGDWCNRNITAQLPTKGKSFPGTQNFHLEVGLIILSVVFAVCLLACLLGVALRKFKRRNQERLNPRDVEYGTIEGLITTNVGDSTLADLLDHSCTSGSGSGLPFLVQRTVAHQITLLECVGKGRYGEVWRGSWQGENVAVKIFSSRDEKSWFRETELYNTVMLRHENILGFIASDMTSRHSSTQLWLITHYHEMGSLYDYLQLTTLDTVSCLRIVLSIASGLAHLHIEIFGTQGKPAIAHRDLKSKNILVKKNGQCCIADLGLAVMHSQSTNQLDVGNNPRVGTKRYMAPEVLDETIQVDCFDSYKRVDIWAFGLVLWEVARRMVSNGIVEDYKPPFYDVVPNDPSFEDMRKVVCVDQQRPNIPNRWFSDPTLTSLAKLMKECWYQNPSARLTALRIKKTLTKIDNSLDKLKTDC
Summary of the method: as §1

[3] = target: T2, ALK5 (Homo sapiens, UniProt P36897); experiment: Kinase assay (33P-ATP filter-binding), ALK5; type: biochemical; details: read-out: Kinase Selectivity ALK5
T2 sequence (P36897 34-503): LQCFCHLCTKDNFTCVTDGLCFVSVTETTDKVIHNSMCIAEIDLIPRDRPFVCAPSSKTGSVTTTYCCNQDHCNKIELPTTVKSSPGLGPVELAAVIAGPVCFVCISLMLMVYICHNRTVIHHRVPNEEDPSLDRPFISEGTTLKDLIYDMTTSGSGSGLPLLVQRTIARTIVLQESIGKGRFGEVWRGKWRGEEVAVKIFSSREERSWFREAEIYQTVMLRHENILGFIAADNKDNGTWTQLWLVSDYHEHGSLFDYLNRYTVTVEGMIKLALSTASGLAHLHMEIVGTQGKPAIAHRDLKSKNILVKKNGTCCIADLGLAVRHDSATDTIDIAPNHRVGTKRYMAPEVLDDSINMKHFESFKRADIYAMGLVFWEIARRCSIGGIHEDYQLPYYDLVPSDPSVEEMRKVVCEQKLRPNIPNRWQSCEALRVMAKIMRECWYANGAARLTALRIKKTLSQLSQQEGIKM
Description: (§2) The kinase assays were carried out briefly as follows. Substrate was prepared in Base Reaction Buffer (20 mM Hepes (pH 7.5), 10 mM MgCl2, 1 mM EGTA, 0.02% Brij35, 0.02 mg/ml BSA, 0.1 mM Na3VO4, 2 mM DTT, 1% DMSO). The indicated kinases was delivered into the substrate solution and allowed to gently mix. Next, the specific compound was delivered in DMSO into the kinase mixture by Acoustic technology (Echo550; nanoliter range), and allowed to incubate for 20 minutes at room temperature. Next, ^33P-ATP was delivered into the reaction mixture to initiate the reaction and allowed to incubate at room temperature. After 2 hours, the reactions were spotted onto P81 ion exchange paper and the kinase activity is detected by the filter-binding method.

[4] = target: T3, BMPR2 (Homo sapiens, UniProt Q13873); experiment: Kinase assay (33P-ATP filter-binding), BMPR2; type: biochemical; details: read-out: Kinase Selectivity BMPR2
T3 sequence (Q13873 27-1038): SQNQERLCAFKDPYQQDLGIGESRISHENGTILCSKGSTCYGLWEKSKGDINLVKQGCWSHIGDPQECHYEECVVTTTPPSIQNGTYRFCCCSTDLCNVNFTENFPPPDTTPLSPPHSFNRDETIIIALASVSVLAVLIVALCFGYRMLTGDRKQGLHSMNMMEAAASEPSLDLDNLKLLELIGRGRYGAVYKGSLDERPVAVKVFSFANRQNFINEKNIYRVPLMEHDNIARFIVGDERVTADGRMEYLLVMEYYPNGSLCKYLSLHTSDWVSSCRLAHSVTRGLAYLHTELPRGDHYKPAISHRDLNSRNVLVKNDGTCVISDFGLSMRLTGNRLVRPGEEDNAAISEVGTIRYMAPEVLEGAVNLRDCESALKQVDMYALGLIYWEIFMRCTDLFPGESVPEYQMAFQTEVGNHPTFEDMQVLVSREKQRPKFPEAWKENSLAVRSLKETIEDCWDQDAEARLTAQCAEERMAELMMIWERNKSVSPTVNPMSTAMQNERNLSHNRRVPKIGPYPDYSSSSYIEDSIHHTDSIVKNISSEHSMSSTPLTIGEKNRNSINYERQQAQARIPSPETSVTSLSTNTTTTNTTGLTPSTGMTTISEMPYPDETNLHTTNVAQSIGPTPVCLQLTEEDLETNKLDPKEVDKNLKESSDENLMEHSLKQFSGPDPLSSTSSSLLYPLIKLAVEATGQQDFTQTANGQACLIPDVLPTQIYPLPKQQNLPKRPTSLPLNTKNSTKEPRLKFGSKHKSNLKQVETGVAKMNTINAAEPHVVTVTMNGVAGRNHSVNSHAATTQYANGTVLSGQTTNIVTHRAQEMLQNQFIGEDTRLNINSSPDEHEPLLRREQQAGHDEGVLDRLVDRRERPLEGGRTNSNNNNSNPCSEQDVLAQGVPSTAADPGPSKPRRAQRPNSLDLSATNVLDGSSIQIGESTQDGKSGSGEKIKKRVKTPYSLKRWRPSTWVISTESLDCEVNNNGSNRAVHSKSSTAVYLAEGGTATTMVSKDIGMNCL
Description: as §2

[5] = target: TGFbR2 (Homo sapiens, UniProt P37173); experiment: Kinase assay (33P-ATP filter-binding), TGFbR2; type: biochemical; details: read-out: Kinase Selectivity TGFbR2
Description: as §2

[6] = Intrinsic clearance, human; type: in vitro ADME; details: human
[7] = Protein binding, human; type: in vitro ADME
[8] = Protein binding, mouse; type: in vitro ADME
[9] = CL-Hep, value in parentheses, read-out: Intrinsic Clearance Human (CL-Hep)
[10] = read-out: Intrinsic Clearance Human

TGFbR2, sequence (P37173 23-567, species assumed): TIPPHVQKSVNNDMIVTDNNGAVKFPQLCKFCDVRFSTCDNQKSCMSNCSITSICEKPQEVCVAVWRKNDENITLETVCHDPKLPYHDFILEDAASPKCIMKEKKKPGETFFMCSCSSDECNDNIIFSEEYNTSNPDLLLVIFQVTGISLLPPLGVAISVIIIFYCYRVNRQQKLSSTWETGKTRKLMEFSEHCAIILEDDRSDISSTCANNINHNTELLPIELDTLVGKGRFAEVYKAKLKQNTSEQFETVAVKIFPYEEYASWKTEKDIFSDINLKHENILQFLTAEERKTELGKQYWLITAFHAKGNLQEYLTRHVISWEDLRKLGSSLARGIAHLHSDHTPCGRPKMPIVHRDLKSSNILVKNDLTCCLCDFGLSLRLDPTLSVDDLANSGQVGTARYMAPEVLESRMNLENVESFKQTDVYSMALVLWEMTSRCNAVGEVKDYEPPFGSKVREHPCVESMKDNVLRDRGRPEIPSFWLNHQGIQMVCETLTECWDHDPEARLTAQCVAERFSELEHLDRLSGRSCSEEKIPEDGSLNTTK
ALK1/ACVRL1, sequence (P37023 22-503): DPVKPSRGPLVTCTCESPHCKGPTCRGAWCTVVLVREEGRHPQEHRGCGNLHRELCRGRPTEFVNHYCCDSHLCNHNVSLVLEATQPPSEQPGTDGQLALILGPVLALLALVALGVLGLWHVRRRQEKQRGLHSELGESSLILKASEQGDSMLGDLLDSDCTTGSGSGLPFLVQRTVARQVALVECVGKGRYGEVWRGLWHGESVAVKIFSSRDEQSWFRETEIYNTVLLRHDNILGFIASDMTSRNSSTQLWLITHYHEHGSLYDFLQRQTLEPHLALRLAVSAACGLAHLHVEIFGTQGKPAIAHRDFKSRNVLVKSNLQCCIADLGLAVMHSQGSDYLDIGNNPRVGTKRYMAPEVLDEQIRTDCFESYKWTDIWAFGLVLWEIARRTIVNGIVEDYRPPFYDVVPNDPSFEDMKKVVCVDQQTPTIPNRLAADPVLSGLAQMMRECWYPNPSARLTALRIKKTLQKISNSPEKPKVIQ

Row | IC50 [1] [nM] | IC50 [2] [nM] | IC50 [3] [nM] | IC50 [4] [nM] | IC50 [5] [nM] | CLint scaled [6, 9] [mL/min/kg] | CLint scaled [6, 10] [mL/min/kg] | Protein Binding (% Free) Human [7] [% Free] | Protein Binding (% Free) Mouse [8] [% Free] | Compound
1 | 152 | < 5.1 | 1140 | > 100000 | 620 | < 10.7 | < 23.1 | 5.61 | 4.7 | Cc1cc(-c2cnc3cc(-c4ccc(C5COC6(CCNCC6)CN5)cc4)ccn23)c2cc(F)cc(F)c2n1 (stereo not shown) [Compound 16]
2 | 42.8 | < 5.1 | 354 | > 100000 | 560 | 17.5 | 139 | 1.11 | 2.85 | Cc1cc(-c2cnc3cc(-c4ccc(C5COCC(C)N5)cc4)ccn23)c2cc(F)cc(F)c2n1 (stereo not shown) [Compound 23]
3 | 907 | 326 | 3290 | > 100000 | 1870 | < 10.7 | < 23.1 | 4.97 | 3.9 | Cc1cc(-c2cnc3cc(-c4ccc(C5COC6(CCNC6)CN5)cc4)ccn23)c2cc(F)cc(F)c2n1 (stereo not shown) [Compound 27]
4 | 197 | 15.8 | 310 | 54400 | 4590 | < 11 | < 23.1 | 42.8 | 33.9 | c1cnc2nccc(-c3cnc4cc(-c5ccc(C6CNCCN6)cc5)ccn34)c2c1 (stereo not shown) [Compound 32]
5 | 61.3 | < 5.1 | 1140 | > 100000 | 620 | < 11 | < 23.1 | 11 | 8.4 | c1cc(-c2cnc3cc(-c4ccc(C5CNCCN5)cc4)ccn23)c2cccnc2c1 (stereo not shown) [Compound 33]
6 | 84.9 | < 5.1 | 717 | > 100000 | 498 |  |  |  |  | O=C1CNC(=O)C(c2ccc(-c3ccn4c(-c5cccc6ncccc56)cnc4c3)cc2)N1 (stereo not shown) [Compound 36]
7 | 723 | 13.2 | 456 | > 100000 | 2680 | < 11 | < 23.1 | 11.7 |  | NS(=O)(=O)c1ccc(-c2cnc3cc(-c4ccc(C5CNCCN5)cc4)ccn23)c2ccccc12 (stereo not shown) [Compound 37]
